Reference: the supplement of paper PMC5908809

Assays:
[1] = tested on: normal NK cells expanded with K562-aAPC; assay: percent inhibition of viability; higher = more inhibition; conditions: 72 h, IL-2 2.5 ng/mL
Description: (§1)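 Drug sensitivity and resistance testing on K562-aAPC-expanded normal NK cells: 5 concentrations (10-fold steps over a 10,000-fold range), 72 h at 37 °C, viability by CellTiter-Glo normalised to DMSO and benzethonium chloride controls; DSS from the fitted curve.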

DERL-7 (IL-2 2.5 ng/mL) [2] = assay: as above; conditions: 72 h
IMC-1 (IL-2 20 ng/mL) [3] = assay: as above; conditions: 72 h
KAI3 (IL-2 2.5 ng/mL) [4] = assay: as above; conditions: 72 h
KHYG-1 (IL-2 2.5 ng/mL) [5] = assay: as above; conditions: 72 h
NK-92 (IL-2 2.5 ng/mL) [6] = assay: as above; conditions: 72 h
NK-YS (IL-2 2.5 ng/mL) [7] = assay: as above; conditions: 72 h
NKL (IL-2 2.5 ng/mL) [8] = assay: as above; conditions: 72 h
SNK-6 (IL-2 2.5 ng/mL) [9] = assay: as above; conditions: 72 h
YT (IL-2 2.5 ng/mL) [10] = assay: as above; conditions: 72 h
[11] = tested on: normal primary NK cells, pool 1 (3 donors) (IL-2 2.5 ng/mL); assay: as above; conditions: 72 h
[12] = tested on: normal primary NK cells, pool 1 (3 donors), resting (IL-2 0 ng/mL); assay: as above; conditions: 72 h
[13] = tested on: normal primary NK cells, pool 2 (3 donors) (IL-2 2.5 ng/mL); assay: as above; conditions: 72 h
[14] = tested on: normal primary NK cells, pool 3 (3 donors) (IL-2 2.5 ng/mL); assay: as above; conditions: 72 h
[15] = tested on: normal NK cells expanded with K562-aAPC; assay: drug sensitivity score (DSS) (DSS units); higher = more sensitive; extreme values may be limits of the assay; conditions: 72 h; IL-2 2.5 ng/mL
Description: as §1

DERL-7 (IL-2 2.5 ng/mL) [16] = assay: as above; conditions: 72 h
IMC-1 (IL-2 20 ng/mL) [17] = assay: as above; conditions: 72 h
KAI3 (IL-2 2.5 ng/mL) [18] = assay: as above; conditions: 72 h
KHYG-1 (IL-2 2.5 ng/mL) [19] = assay: as above; conditions: 72 h
NK-92 (IL-2 2.5 ng/mL) [20] = assay: as above; conditions: 72 h
NK-YS (IL-2 2.5 ng/mL) [21] = assay: as above; conditions: 72 h
NKL (IL-2 2.5 ng/mL) [22] = assay: as above; conditions: 72 h
SNK-6 (IL-2 2.5 ng/mL) [23] = assay: as above; conditions: 72 h
YT (IL-2 2.5 ng/mL) [24] = assay: as above; conditions: 72 h
[25] = tested on: normal primary NK cells, pool 1 (3 donors) (IL-2 2.5 ng/mL); assay: as above; conditions: 72 h
[26] = tested on: normal primary NK cells, pool 1 (3 donors), resting (IL-2 0 ng/mL); assay: as above; conditions: 72 h
[27] = tested on: normal primary NK cells, pool 2 (3 donors) (IL-2 2.5 ng/mL); assay: as above; conditions: 72 h
[28] = tested on: normal primary NK cells, pool 3 (3 donors) (IL-2 2.5 ng/mL); assay: as above; conditions: 72 h

c1ccc([C@H]2CN3CCSC3=N2)cc1 [Levamisole] (max concentration tested 10000 nM)
percent inhibition of viability [%]
Conditions | 1 nM | 10 nM | 100 nM | 1000 nM | 10000 nM
DERL-7 (IL-2 2.5 ng/mL) [2] | -5.12 | 0.58 | -3.2 | -6.8 | -8.1
IMC-1 (IL-2 20 ng/mL) [3] | 0.36 | -1.13 | -6.73 | -2.24 | -6.39
KAI3 (IL-2 2.5 ng/mL) [4] | -7.01 | -9.23 | -10.5 | -11.1 | -14.3
KHYG-1 (IL-2 2.5 ng/mL) [5] | -4.84 | -2.9 | -4.9 | -1.62 | -2.11
NK-92 (IL-2 2.5 ng/mL) [6] | -11.8 | -18.9 | -18.4 | -24.3 | -19.2
NK-YS (IL-2 2.5 ng/mL) [7] | -2.25 | -3.37 | -7.18 | -2.36 | -6.1
NKL (IL-2 2.5 ng/mL) [8] | -11.2 | 0.14 | -6.49 | -4.45 | -10.6
SNK-6 (IL-2 2.5 ng/mL) [9] | 3.65 | 13.1 | -14.1 | -5.97 | -47.5
YT (IL-2 2.5 ng/mL) [10] | -3.76 | -6.23 | -5.31 | -5.18 | -4.44
[1] | -4.29 | -11 | -5.79 | -6.94 | -11
[11] | -7.56 | -2.22 | 4.92 | -0.77 | 2.81
[12] | -4.85 | -2.06 | 13.8 | 4.07 | 3.16
[13] | -4.91 | -0.55 | -10.1 | -7.03 | -10.1
[14] | -8.31 | -11.3 | -9.28 | -4.76 | -5.98

Conditions | drug sensitivity score
DERL-7 (IL-2 2.5 ng/mL) [16] | 0
IMC-1 (IL-2 20 ng/mL) [17] | 0
KAI3 (IL-2 2.5 ng/mL) [18] | 0
KHYG-1 (IL-2 2.5 ng/mL) [19] | 0
NK-92 (IL-2 2.5 ng/mL) [20] | 0
NK-YS (IL-2 2.5 ng/mL) [21] | 0
NKL (IL-2 2.5 ng/mL) [22] | 0
SNK-6 (IL-2 2.5 ng/mL) [23] | 0
YT (IL-2 2.5 ng/mL) [24] | 0
[15] | 0
[25] | 0
[26] | 0
[27] | 0
[28] | 0

O=NN(CCCl)C(=O)NC1CCCCC1 [Lomustine] (max concentration tested 10000 nM)
percent inhibition of viability [%]
Conditions | 1 nM | 10 nM | 100 nM | 1000 nM | 10000 nM
DERL-7 (IL-2 2.5 ng/mL) [2] | -0.56 | -0.17 | -2.85 | -3.2 | -5.37
IMC-1 (IL-2 20 ng/mL) [3] | -5.94 | -3.37 | -4.39 | -5.66 | -4.09
KAI3 (IL-2 2.5 ng/mL) [4] | -9.82 | 0.25 | -6.64 | -4.27 | -3.54
KHYG-1 (IL-2 2.5 ng/mL) [5] | -7.65 | -1.52 | -3.58 | -1.68 | 0.4
NK-92 (IL-2 2.5 ng/mL) [6] | -9.96 | -19 | -9.06 | -13.7 | -15.8
NK-YS (IL-2 2.5 ng/mL) [7] | -6.33 | -2.26 | -1.76 | 0.49 | 4.09
NKL (IL-2 2.5 ng/mL) [8] | -15 | -16.4 | -19.5 | -23.3 | -24.5
SNK-6 (IL-2 2.5 ng/mL) [9] | 10.8 | 20.4 | -2.23 | 6.58 | -11
YT (IL-2 2.5 ng/mL) [10] | -3.7 | -2.05 | -4.42 | -2.81 | 0.06
[1] | -0.77 | -4.05 | -3.71 | -4.93 | -6.08
[11] | -1.98 | -5.39 | -3.98 | -5.42 | -0.06
[12] | -9.1 | -11.4 | -22.4 | 13.4 | 3.51
[13] | -12.4 | -5.7 | -9.1 | -11.4 | -2.45
[14] | -11.8 | -8.98 | -8.45 | -6.32 | -4.26

Conditions | drug sensitivity score
DERL-7 (IL-2 2.5 ng/mL) [16] | 0
IMC-1 (IL-2 20 ng/mL) [17] | 0
KAI3 (IL-2 2.5 ng/mL) [18] | 0
KHYG-1 (IL-2 2.5 ng/mL) [19] | 0
NK-92 (IL-2 2.5 ng/mL) [20] | 0
NK-YS (IL-2 2.5 ng/mL) [21] | 0
NKL (IL-2 2.5 ng/mL) [22] | 0
SNK-6 (IL-2 2.5 ng/mL) [23] | 0
YT (IL-2 2.5 ng/mL) [24] | 0
[15] | 0
[25] | 0
[26] | 0
[27] | 0
[28] | 0

CCNC(=O)c1noc(-c2cc(C(C)C)c(O)cc2O)c1-c1ccc(CN2CCOCC2)cc1 [Luminespib] (max concentration tested 1000 nM)
percent inhibition of viability [%]
Conditions | 0.1 nM | 1 nM | 10 nM | 100 nM | 1000 nM
DERL-7 (IL-2 2.5 ng/mL) [2] | 2.4 | 1.89 | 99.7 | 100 | 100
IMC-1 (IL-2 20 ng/mL) [3] | -0.63 | -3.7 | 51.6 | 99.6 | 99.7
KAI3 (IL-2 2.5 ng/mL) [4] | 1.34 | 8.03 | 88.8 | 100 | 97.7
KHYG-1 (IL-2 2.5 ng/mL) [5] | -1.01 | 1.79 | 47.7 | 102 | 99.4
NK-92 (IL-2 2.5 ng/mL) [6] | -9.62 | -1.81 | 66.9 | 97.9 | 95
NK-YS (IL-2 2.5 ng/mL) [7] | -0.03 | 4.35 | 89.3 | 98.7 | 97.7
NKL (IL-2 2.5 ng/mL) [8] | -1.62 | -1.66 | 87.8 | 86.7 | 85.5
SNK-6 (IL-2 2.5 ng/mL) [9] | -5.65 | 9.52 | 35.8 | 85.2 | 87.3
YT (IL-2 2.5 ng/mL) [10] | -1.24 | -3.01 | 7.32 | 89.6 | 92.1
[1] | -2.12 | -2.95 | 97.5 | 97.4 | 97.4
[11] | -3.81 | 5.41 | 76.8 | 82.5 | 86.2
[12] | -4.56 | -1.24 | 21.2 | 46.8 | 48.1
[13] | -11.3 | 0.74 | 74.2 | 74.9 | 76
[14] | -20 | -6.55 | 68.1 | 75.4 | 77.5

Conditions | drug sensitivity score
DERL-7 (IL-2 2.5 ng/mL) [16] | 30.7
IMC-1 (IL-2 20 ng/mL) [17] | 24.3
KAI3 (IL-2 2.5 ng/mL) [18] | 29.8
KHYG-1 (IL-2 2.5 ng/mL) [19] | 24
NK-92 (IL-2 2.5 ng/mL) [20] | 25.4
NK-YS (IL-2 2.5 ng/mL) [21] | 29.1
NKL (IL-2 2.5 ng/mL) [22] | 26.9
SNK-6 (IL-2 2.5 ng/mL) [23] | 19.6
YT (IL-2 2.5 ng/mL) [24] | 17.6
[15] | 29.5
[25] | 25.7
[26] | 11.5
[27] | 23.5
[28] | 22.2
